Experimental data taken from patent US20240158446A1, “CYCLIC COMPOUND HAVING SELECTIVE INHIBITORY ACTION ON KRAS OVER HRAS AND NRAS” (CHUGAI SEIYAKU KABUSHIKI KAISHA, priority 2021, published 2024).

Tests used:
[1] = molecular target: GDP-bound HRAS wild-type protein (Homo sapiens, UniProt P01112); assay: Binding to HRAS by surface plasmon resonance (SPR), Single Cycle Kinetics; settings: SPR, GDP-bound HRAS wild-type protein vs GDP-bound KRAS wild-type protein
[2] = molecular target: GDP-bound NRAS wild-type protein (Homo sapiens, UniProt P01111); assay: Binding to NRAS by surface plasmon resonance (SPR), Single Cycle Kinetics; settings: SPR, GDP-bound NRAS wild-type protein vs GDP-bound KRAS wild-type protein
Chain of GDP-bound NRAS wild-type protein (P01111 whole entry): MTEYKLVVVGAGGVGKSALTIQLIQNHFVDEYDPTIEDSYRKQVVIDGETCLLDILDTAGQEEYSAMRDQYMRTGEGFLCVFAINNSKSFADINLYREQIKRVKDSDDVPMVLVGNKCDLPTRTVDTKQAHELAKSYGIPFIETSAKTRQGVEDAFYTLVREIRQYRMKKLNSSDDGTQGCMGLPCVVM

Chain of GDP-bound HRAS wild-type protein (P01112 whole entry): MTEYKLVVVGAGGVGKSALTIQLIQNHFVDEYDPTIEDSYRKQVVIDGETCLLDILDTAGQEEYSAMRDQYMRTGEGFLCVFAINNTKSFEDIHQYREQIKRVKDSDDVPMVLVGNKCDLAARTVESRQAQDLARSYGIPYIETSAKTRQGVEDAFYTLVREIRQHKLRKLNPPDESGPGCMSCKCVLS

| Compound | HRAS/KRAS (ratio of KD value for HRAS to KD value for KRAS) [1] | NRAS/KRAS (ratio of KD value for NRAS to KD value for KRAS) [2] |
| --- | --- | --- |
| CCC[C@@H]1C[C@H]2C(=O)NC3(CCCC3)C(=O)N(C)[C@@H](C3CCCC3)C(=O)N(C)[C@H](C(=O)N(C)C)CC(=O)N(C)[C@@H](CC(C)C)C(=O)N[C@@H]([C@@H](C)CC)C(=O)N(C)CC(=O)N(C)[C@H]3C/C=C\CCN(C3=O)[C@@H](Cc3ccc(C)cc3)C(=O)N(C)CC(=O)N[C@@H](CCc3cc(F)c(C(F)(F)F)c(F)c3)C(=O)N2C1 [PP2193] | A (a compound having 10 or more and less than 20 is denoted as A) | A (a compound having 10 or more and less than 20 is denoted as A) |
| CCC[C@H]1C(=O)N[C@@H](C(CC)CC)C(=O)N(C)CC(=O)N(C)[C@H]2C/C=C\CCN(C2=O)[C@@H](Cc2ccc(C)cc2)C(=O)N(C)CC(=O)N[C@@H](CCc2ccc(C(F)(F)F)c(Cl)c2)C(=O)N2C[C@H](OCC)C[C@H]2C(=O)NC2(CC(C)(C)C2)C(=O)N(C)[C@@H](CC(C)C)C(=O)N(C)[C@H](C(=O)N(C)C)CC(=O)N1C [PP2202] | A (a compound having 10 or more and less than 20 is denoted as A) | A (a compound having 10 or more and less than 20 is denoted as A) |
| CCCOC[C@H]1C(=O)N[C@@H]([C@@H](C)CC)C(=O)N(C)CC(=O)N(C)[C@H]2C/C=C\CCN(C2=O)[C@@H](Cc2ccc(C)cc2)C(=O)N(C)CC(=O)N[C@@H](CCc2cc(F)c(C(F)(F)F)c(F)c2)C(=O)N2C[C@H](CCC)C[C@H]2C(=O)NC2(CC(C)(C)C2)C(=O)N(C)[C@@H](C2CCCC2)C(=O)N(C)[C@H](C(=O)N(C)C)CC(=O)N1C [PP2203] | A (a compound having 10 or more and less than 20 is denoted as A) | A (a compound having 10 or more and less than 20 is denoted as A) |
| CCC[C@H]1C(=O)N[C@@H]([C@@H](C)CC)C(=O)N(C)CC(=O)N(C)[C@H]2C/C=C\CCN(C2=O)[C@@H](Cc2ccc(C)cc2)C(=O)N(C)CC(=O)N[C@@H](CCc2ccc(C(F)(F)F)c(Cl)c2)C(=O)N2C[C@H](C)C[C@H]2C(=O)NC2(CC(C)(C)C2)C(=O)N(C)[C@@H](C2CCCC2)C(=O)N(C)[C@H](C(=O)N(C)C)CC(=O)N1C [PP2210] | B (a compound having 3 or more and less than 10 is denoted as B) | A (a compound having 10 or more and less than 20 is denoted as A) |
| CCC[C@@H]1C[C@H]2C(=O)NC3(CC(C)(C)C3)C(=O)N(C)[C@@H](C3CCCC3)C(=O)N(C)[C@H](C(=O)N(C)C)CC(=O)N(C)[C@@H](CCC)C(=O)N[C@@H]([C@@H](C)CC)C(=O)N(C)CC(=O)N(C)[C@H]3C/C=C\CCN(C3=O)[C@@H](Cc3ccc(C)cc3)C(=O)N(C)CC(=O)N[C@@H](CCc3ccc(C(F)(F)F)c(Cl)c3)C(=O)N2C1 [PP2214] | A (a compound having 10 or more and less than 20 is denoted as A) | A (a compound having 10 or more and less than 20 is denoted as A) |
| CCC[C@H]1C(=O)N[C@@H]([C@@H](C)CC)C(=O)N(C)CC(=O)N(C)[C@H]2C/C=C\CCN(C2=O)[C@@H](Cc2ccc(C)cc2)C(=O)N(C)CC(=O)N[C@@H](CCc2cc(F)c(C(F)(F)F)c(F)c2)C(=O)N2C[C@H](CC)C[C@H]2C(=O)NC2(CCCC2)C(=O)N(C)[C@@H](C2CCCC2)C(=O)N(C)[C@H](C(=O)N(C)C)CC(=O)N1C [PP2216] | A (a compound having 10 or more and less than 20 is denoted as A) | A (a compound having 10 or more and less than 20 is denoted as A) |
| CCCOC[C@H]1C(=O)N[C@@H]([C@@H](C)CC)C(=O)N(C)CC(=O)N(C)[C@H]2C/C=C\CCN(C2=O)[C@@H](Cc2ccc(C)cc2)C(=O)N(C)CC(=O)N[C@@H](CCc2cc(F)c(C(F)(F)F)c(F)c2)C(=O)N2C[C@H](CC)C[C@H]2C(=O)NC2(CCCC2)C(=O)N(C)[C@@H](C2CCCC2)C(=O)N(C)[C@H](C(=O)N(C)C)CC(=O)N1C [PP2218] | A (a compound having 10 or more and less than 20 is denoted as A) | A (a compound having 10 or more and less than 20 is denoted as A) |
| CCC[C@H]1C(=O)N[C@@H]([C@H](C)CC)C(=O)N(C)CC(=O)N(C)[C@H]2C/C=C\CCN(C2=O)[C@@H](Cc2ccc(C)cc2)C(=O)N(C)CC(=O)N[C@@H](CCc2ccc(C(F)(F)F)c(Cl)c2)C(=O)N2C[C@H](OCC)C[C@H]2C(=O)NC2(CC(C)(C)C2)C(=O)N(C)[C@@H](CC(C)(C)C)C(=O)N(C)[C@H](C(=O)N(C)C)CC(=O)N1C [PP2219] | A (a compound having 10 or more and less than 20 is denoted as A) | A (a compound having 10 or more and less than 20 is denoted as A) |
| CC[C@@H]1C[C@H]2C(=O)NC3(CCC3)C(=O)N(C)[C@@H](C3CCCC3)C(=O)N(C)[C@H](C(=O)N(C)C)CC(=O)N(C)[C@@H](CC(C)C)C(=O)N[C@@H]([C@@H](C)CC)C(=O)N(C)CC(=O)N(C)[C@H]3C/C=C\CCN(C3=O)[C@@H](Cc3ccc(C)cc3)C(=O)N(C)CC(=O)N[C@@H](CCc3cc(F)c(C(F)(F)F)c(F)c3)C(=O)N2C1 [PP2220] | A (a compound having 10 or more and less than 20 is denoted as A) | A (a compound having 10 or more and less than 20 is denoted as A) |
| CCC[C@H]1C(=O)N[C@@H]([C@H](C)CC)C(=O)N(C)CC(=O)N(C)[C@H]2C/C=C\CCN(C2=O)[C@@H](Cc2ccc(C)cc2)C(=O)N(C)CC(=O)N[C@@H](CCc2ccc(C(F)(F)F)c(Cl)c2)C(=O)N2C[C@H](OCC)C[C@H]2C(=O)NC2(CC(C)(C)C2)C(=O)N(C)[C@@H](C2CCCC2)C(=O)N(C)[C@H](C(=O)N(C)C)CC(=O)N1C [PP2221] | A (a compound having 10 or more and less than 20 is denoted as A) | A (a compound having 10 or more and less than 20 is denoted as A) |
| CC[C@H](C)[C@@H]1NC(=O)[C@H](CC(C)C)N(C)C(=O)C[C@@H](C(=O)N(C)C)N(C)C(=O)[C@H](C2CCCC2)N(C)C(=O)C2(CC(C)(C)C2)NC(=O)[C@@H]2C[C@@H](C)CN2C(=O)[C@H](CCc2cc(F)c(C(F)(F)F)c(F)c2)NC(=O)CN(C)C(=O)[C@H](Cc2ccc(C)cc2)N2CC/C=C\C[C@@H](C2=O)N(C)C(=O)CN(C)C1=O [PP2223] | A (a compound having 10 or more and less than 20 is denoted as A) | A (a compound having 10 or more and less than 20 is denoted as A) |
| CCCOC[C@H]1C(=O)N[C@@H]([C@@H](C)CC)C(=O)N(C)CC(=O)N(C)[C@H]2C/C=C\CCN(C2=O)[C@@H](Cc2ccc(C)cc2)C(=O)N(C)CC(=O)N[C@@H](CCc2cc(F)c(C(F)(F)F)c(F)c2)C(=O)N2C[C@H](C)C[C@H]2C(=O)NC2(CCCC2)C(=O)N(C)[C@@H](C2CCCC2)C(=O)N(C)[C@H](C(=O)N(C)C)CC(=O)N1C [PP2225] | A (a compound having 10 or more and less than 20 is denoted as A) | A (a compound having 10 or more and less than 20 is denoted as A) |
